From publication PMC8901748, “A novel prostaglandin E receptor 4 (EP4) small molecule antagonist induces articular cartilage regeneration” (Cell Discovery, 2022)
pIC50: −log10 of the molar value. Like-named read-outs stand apart in the source and are kept apart here.

How the values were obtained:
[1] = system: primary articular chondrocytes; assay: Cell viability by CCK-8 assay; assay type: cell-based, mouse; details: 72 h, read-out: IC50 (cell viability, toxicity in chondrocytes)
Protocol: The cell viability was evaluated by CCK-8 assay (Dojindo Molecular Technologies). Primary chondrocytes were plated in the 96-well plates and treated with the EP4 antagonists or DMSO for 72 h. A total of 10 μl CCK-8 was added to each well, the cells were incubated in the presence of CCK-8 for 2–3 h. The optical density (OD) of each well at 450 nm was recorded on a Microplate Reader (SPECTRA MAX190). The absorbance values were normalized by subtracting blank values of […]. The cell viability (% of control) is calculated as the percentage of (ODtest − ODblank)/(ODcontrol − ODblank). The 50% inhibitory concentration (IC50) was calculated with GraphPad Prism software using the sigmoidal dose-response function.
ATDC5 cell line was purchased from Riken BioResource Center (Tsukuba, Japan) and grown in a 1:1 mixture of DMEM/F12 medium (Corning, 10-092-CVR) supplemented with 5% fetal bovine serum (Gibco, 10099, USA) and 1% penicillin-streptomycin solution (Life Technologies). Cells were maintained at 37 °C under 5% CO2. Primary chondrocytes were obtained from knee joint cartilage of newborn mice. Knee joints were dissected from the tibia plateau and femoral condyle articular cartilage of mouse pups and digested in 0.1% collagenase type II (Sigma) overnight at 37 °C and chondrocytes were harvested by centrifugation. Primary chondrocytes were cultured at a density of 5 × 10^3 cells per ml at 37 °C with 5% CO2. DMEM/F12 medium with 10% fetal bovine serum (FBS) and 1% penicillin–streptomycin was used to culture the primary chondrocytes. Chondrogenic differentiation were induced with chondrogenic medium, which contains insulin-transferrin-selenium (ITS) (Sigma, I3146), 10 ng/ml TGF-β3 (PEPROTECH, 100-36E, USA), 100 nM Dexamethasone (Sigma, D4902), 50 μg/ml VC (Sigma), 1 mM sodium pyruvate (Sigma) and 40 μg/ml proline (Sigma), and/or treatment with rmIL-1β (R&D, 401-ML/CF), TNFα (PEPROTECH, 300-01A-50) in DMEM/F12 for indicated days. Western blotting was performed according to standard protocols. Antibodies used were: rabbit anti-Mmp3 (1:1000, HuaBio), rabbit anti-Mmp13 (1:500, abcam, ab39012), rabbit anti-p-CREB (1:2000, Cell Signaling Technology, 87G3), rabbit anti-CREB (1:2000, Cell Signaling Technology, 48H2), mouse anti-GAPDH (1:5000; Sigma-Aldrich, G8795), rabbit anti-Col2 (Abcam, Ab34712), rabbit anti-STAT3 (1:2000; Abcam, ab68153), rabbit anti-p-STAT3 (Y705) (1:2000; Abcam, ab76315), rabbit anti -p65 (1:1000; CST, 3034), rabbit anti-p-p65 (1:1000; CST, 3033), and rabbit anti-IκBα (1:1000; Abways, CY5026).

CRE-Luc in ATDC5 cells = assay: CRE-Luc luciferase reporter assay; assay type: cell-based, mouse; details: for CRE-Luc activity: 12 hr
Protocol: Six firefly luciferase reporters were used in the Luciferase assay, including CRE-Luc (PathDetect CRE cis-Reporting System; Stratagene, La Jolla CA) driven by a basic promoter (TATA box) plus four repeats of CRE; Sox9 promoter-Luc contains human SOX9 proximal promoter region (−1034 bp to +67 bp)[45]; 4 × 48-p89-Luc, mouse Col2a1 minimal promoter. AP-1-Luc, Nf-κb-Luc, STAT-Luc were obtained from Stratagene. Chondrocytes were cultured in 24-well plates and 300 ng firefly luciferase reporter constructs were transiently transfected using transfection reagent TransExellent-DNA (Cenji Biotech Inc, China) following manufacturer’s instruction, and 15 ng of the Copia-Renilla luciferase reporter was co-transfected as a normalization control. […] The Dual-Luciferase measurements were performed in triplicate using the Luciferase assay kit (Promega) and a LUMIstar Omega luminometer (BMG Labtech, Mornington, Australia).

[2] = system: Sox9 promoter-Luc in ATDC5 cells; assay: Sox9 promoter-Luc luciferase reporter assay; assay type: cell-based, mouse; details: 6 h
Protocol: (§1) Six firefly luciferase reporters were used in the Luciferase assay, including CRE-Luc (PathDetect CRE cis-Reporting System; Stratagene, La Jolla CA) driven by a basic promoter (TATA box) plus four repeats of CRE; Sox9 promoter-Luc contains human SOX9 proximal promoter region (−1034 bp to +67 bp)[45]; 4 × 48-p89-Luc, mouse Col2a1 minimal promoter. AP-1-Luc, Nf-κb-Luc, STAT-Luc were obtained from Stratagene. Chondrocytes were cultured in 24-well plates and 300 ng firefly luciferase reporter constructs were transiently transfected using transfection reagent TransExellent-DNA (Cenji Biotech Inc, China) following manufacturer’s instruction, and 15 ng of the Copia-Renilla luciferase reporter was co-transfected as a normalization control. Cells were treated with the indicated reagents for 48 h after transfection. The Dual-Luciferase measurements were performed in triplicate using the Luciferase assay kit (Promega) and a LUMIstar Omega luminometer (BMG Labtech, Mornington, Australia).

[3] = Preliminary pharmacokinetic studies in CD1 mice; assay type: in vivo
Protocol: To evaluate the preclinical pharmacokinetic (PK) profiles of compound HL-43 and HL-66, 36 male CD1 mice were randomly divided into four groups for PK studies. […] Blood samples were collected at 0.083, 0.25, 0.5, 1, 2, 4, 8, 12, and 24 h after administration (n = 3). Then the whole blood was centrifuged at 5500 × g for 15 min at 4 °C. After suitable sample preparation, the concentration of HL-43 and HL-66 in plasma sample was determined by Agilent HPLC-MS/MS system (Agilent Technologies, USA). Pharmacokinetic parameters were calculated by WinNonlin software version 7.0 based on non-compartmental analysis (Pharsight Corporation, Mountain View, USA). Mean plasma concentration-time curves were plotted by GraphPad Prism 7.0 (GraphPad Software Inc., CA, USA).

gastrointestinal tract = assay: Gastrointestinal tract toxicity (data not shown); assay type: in vivo; details: compared to Celecoxib
Nf-κb-Luc in ATDC5 cells = assay: NF-κB-Luc luciferase reporter assay; assay type: cell-based, mouse; details: 2 ng/ml IL-1β, 30 μM HL-43, 6 h
Protocol: as §1

SMILES	pIC50 ([1]; Mus musculus, Chondrocyte)	CRE-Luc activity (CRE-Luc in ATDC5 cells)	Sox9 promoter-Luc activity after IL-1β ([2]; 2 ng/ml IL-1β)	Sox9 promoter-Luc activity ([2]; without IL-1β)	pIC50 [1]	AUC0-∞ ([3]; I.V. (5 mg/kg)) [ng·h/mL]	C0 ([3]; I.V. (5 mg/kg)) [ng/mL]	CL ([3]; I.V. (5 mg/kg)) [mL/min/kg]	Vd ([3]; I.V. (5 mg/kg)) [L/kg]	t1/2 ([3]; I.V. (5 mg/kg)) [h]	AUC0-∞ ([3]; P.O. (1 mg/kg)) [ng·h/mL]	CL ([3]; P.O. (1 mg/kg)) [mL/min/kg]	Cmax ([3]; P.O. (1 mg/kg)) [ng/mL]	Vd ([3]; P.O. (1 mg/kg)) [L/kg]	t1/2 ([3]; P.O. (1 mg/kg)) [h]	Bioavailability ([3]; oral) [%]	Toxicity in gastrointestinal tract (gastrointestinal tract)	NF-κB luciferase reporter activity (Nf-κb-Luc in ATDC5 cells)	CRE-Luc reporter activity under pro-inflammatory conditions (CRE-Luc in ATDC5 cells; 2 ng/ml IL-1β or 100 nM PGE2, 6 h)
CCc1nc2c(C)nc(C)cc2n1-c1ccc(CCNC(=O)NS(=O)(=O)c2ccc(C)cc2)cc1 [Grapiprant]	3.95	increase CRE-Luc activity in a dose dependent manner																	
C[C@H](NC(=O)c1c(-c2ccccc2)nnn1CCOc1ccc(F)cc1)c1ccc(C(=O)O)cc1 [HL-43]		increase CRE-Luc activity in a dose dependent manner	partially rescued the Sox9 transcriptional expression in a dose-dependent manner	increased by HL-43 stimulation in a dose-dependent manner	< 3.00	917.2	1613.6	18.3	6.3	4.0	1076.1	76.7	270.2	21.8	3.3	23.7	lower toxicity	not AP-1 or NF-κB	dose-dependently activated
